Test in all cases: MIC by microdilution in cation-adjusted Mueller-Hinton Broth (NCCLS)
Common to all, as to assay type: cell-based

The subject of assay [1] is M. catarrhalis A894. The settings on record: Moraxella catarrhalis, pH of test medium 7.2-7.3. As for the experimental part:
(§1) These assays have been performed following the description given in “Methods for dilution Antimicrobial Susceptibility Tests for Bacteria that Grow Aerobically, 4th ed.; Approved standard: NCCLS Document M7-A4; National Committee for Clinical Laboratory Standards Villanova, Pa., USA, 1997”. Minimal inhibitory concentrations (MICs; mg/l) were determined in cation-adjusted Mueller-Hinton Broth (BBL) by a microdilution method following NCCLS guidelines (National Committee for Clinical Laboratory Standards. Methods for Dilution Antimicrobial Susceptibility). The pH of the test medium was 7.2-7.3. All the above Examples were tested against several Gram positive and Gram negative bacteria.

Assay [2] has as its system S. Pneumoniae 49619. To be noted: Streptococcus pneumoniae. The protocol:
as §1

Assay [3] deals with S. aureus A798. The settings on record: Staphylococcus aureus. The protocol:
as §1

[4] abbreviates: pH of test medium 7.2-7.3, read-out: MIC S. Pneumoniae 49619.
Setting [5] is: A798, pH of test medium 7.2-7.3, read-out: MIC S. aureus A798.

Structures are written as SMILES. ≈ marks a conversion by molar mass, not a printed value. Read-outs that look alike come from different tables or passages of the source.

Here are results for eleven compounds from patent publication US8039466B2, “5-hydroxymethyl-oxazolidin-2-one antibacterials” (Actelion Pharmaceutical Ltd., priority 2006, dated 2011).

In the case of `O=C(O)c1cn(C2CC2)c2c3c(c(F)cc2c1=O)N1CCC(O)(COc2ccc(N4C[C@H](CO)OC4=O)cc2F)C[C@H]1CO3` (mixture of isomers) [Example 6, (6aS,8RS)-4-cyclopropyl-11-fluoro-8-[2-fluoro-4-((R)-5-hydroxymethyl-2-oxo-oxazolidin-3-yl)-phenoxymethyl]-8-hydroxy-1-oxo-1,4,6,6a,7,8,9,10-octahydro-5-oxa-4,10a-diaza-chrysene-2-carboxylic acid], the values for the MIC in assay [1], in assay [2] (setting [4]) and in assay [3] (setting [5]) were 0.5 µg/mL, 0.25 µg/mL and 0.5 µg/mL, respectively.

As for `O=C(O)c1cn(C2CC2)c2c3c(c(F)cc2c1=O)N1CCC(O)(COc2ccc(N4C[C@H](CO)OC4=O)cc2F)C[C@@H]1CO3` (mixture of isomers) [Example 7, (6aR,8RS)-4-cyclopropyl-11-fluoro-8-[2-fluoro-4-((R)-5-hydroxymethyl-2-oxo-oxazolidin-3-yl)-phenoxymethyl]-8-hydroxy-1-oxo-1,4,6,6a,7,8,9,10-octahydro-5-oxa-4,10a-diaza-chrysene-2-carboxylic acid], the MIC in assay [2] (setting [4]) amounted to 0.25 µg/mL.

`O=C(O)c1cn(C2CC2)c2c3c(c(F)cc2c1=O)N1C[C@](O)(COc2ccc(N4C[C@H](CO)OC4=O)cc2F)C[C@H]1CO3` [Example 1, (13S,16S)-1-cyclopropyl-7-fluoro-16-[2-fluoro-4-((R)-5-hydroxymethyl-2-oxo-oxazolidin-3-yl)-phenoxymethyl]-16-hydroxy-4-oxo-1,4,13,15,16,17-hexahydro-12H-11-oxa-1,14-diaza-cyclopenta[a]phenanthrene-3-carboxylic acid]: the MIC in assay [2] (setting [4]) is no more than 0.063 µg/mL.

On to `C[C@@H](N)C(=O)OC[C@H]1CN(c2ccc(OC[C@]3(O)C[C@H]4COc5c(c(F)cc6c(=O)c(C(=O)O)cn(C7CC7)c56)N4C3)c(F)c2)C(=O)O1` [Example 2, (13S,16S)-16-{4-[(R)-5-((R)-2-amino-propionyloxymethyl)-2-oxo-oxazolidin-3-yl]-2-fluoro-phenoxymethyl}-1-cyclopropyl-7-fluoro-16-hydroxy-4-oxo-1,4,13,15,16,17-hexahydro-12H-11-oxa-1,14-diaza-cyclopenta[a]phenanthrene-3-carboxylic acid], for which, in assay [2] (setting [4]), the MIC amounted to 0.125 µg/mL (≈ 0.186 µM).

In the case of `CCn1cc(C(=O)O)c(=O)c2cc(F)c3c(c21)OC[C@@H]1C[C@@](O)(COc2ccc(N4C[C@H](CO)OC4=O)cc2F)CN31` [Example 3, (13S,16S)-1-ethyl-7-fluoro-16-[2-fluoro-4-((R)-5-hydroxymethyl-2-oxo-oxazolidin-3-yl)-phenoxymethyl]-16-hydroxy-4-oxo-1,4,13,15,16,17-hexahydro-12H-11-oxa-1,14-diaza-cyclopenta[a]phenanthrene-3-carboxylic acid], the MIC was found to be 0.125 µg/mL (≈ 0.213 µM) in assay [1], 0.25 µg/mL (≈ 0.426 µM) in assay [2] (setting [4]) and 0.5 µg/mL (≈ 0.851 µM) in assay [3] (setting [5]).

For `O=C(O)c1cn(C2CC2)c2c3c(c(F)cc2c1=O)N1C[C@H](COc2ccc(N4C[C@H](CO)OC4=O)cc2F)C[C@H]1CO3` [Example 4, (13S,16R)-1-cyclopropyl-7-fluoro-16-[2-fluoro-4-((R)-5-hydroxymethyl-2-oxo-oxazolidin-3-yl)-phenoxymethyl]-4-oxo-1,4,13,15,16,17-hexahydro-12H-11-oxa-1,14-diaza-cyclopenta[a]phenanthrene-3-carboxylic acid], the MIC in assay [2] (setting [4]) worked out at 0.25 µg/mL (≈ 0.428 µM).

On to `O=C(O)c1cn(C2CC2)c2c3c(c(F)cc2c1=O)N1C[C@@H](COc2ccc(N4C[C@H](CO)OC4=O)cc2F)C[C@H]1CO3` [Example 5, (13S,16S)-1-cyclopropyl-7-fluoro-16-[2-fluoro-4-((R)-5-hydroxymethyl-2-oxo-oxazolidin-3-yl)-phenoxymethyl]-4-oxo-1,4,13,15,16,17-hexahydro-12H-11-oxa-1,14-diaza-cyclopenta[a]phenanthrene-3-carboxylic acid], for which the MIC in assay [2] (setting [4]) stood at 0.25 µg/mL (≈ 0.428 µM).

`O=C(O)c1cn(C2CC2)c2c3c(c(F)cc2c1=O)N1C[C@@](COc2ccc(N4C[C@H](CO)OC4=O)cc2F)(OP(=O)(O)O)C[C@H]1CO3` [Example 8, (13S,16S)-1-cyclopropyl-7-fluoro-16-[2-fluoro-4-((R)-5-hydroxymethyl-2-oxo-oxazolidin-3-yl)-phenoxymethyl]-4-oxo-16-phosphonooxy-1,4,13,15,16,17-hexahydro-12H-11-oxa-1,14-diaza-cyclopenta[a]phenanthrene-3-carboxylic acid]: the MIC in assay [3] (A798, in the presence of human alkaline phosphatase, read-out: MIC against S. aureus A798) came out at 0.25 µg/mL; in assay [3] (A798, phosphatase absent, read-out: MIC against S. aureus A798), 4 µg/mL (≈ 5.89 µM).

On to `O=C(O)c1c[nH]c2c3c(c(F)cc2c1=O)N1C[C@](O)(COc2ccc(N4C[C@H](CO)OC4=O)cc2F)C[C@H]1CO3` [Example 9, (13S,16S)-7-fluoro-16-[2-fluoro-4-((R)-5-hydroxymethyl-2-oxo-oxazolidin-3-yl)-phenoxymethyl]-16-hydroxy-4-oxo-1,4,13,15,16,17-hexahydro-12H-11-oxa-1,14-diaza-cyclopenta[a]phenanthrene-3-carboxylic acid], for which, in assay [2] (setting [4]), the MIC stood at 0.25 µg/mL (≈ 0.447 µM).

For `C[C@H](N)C(=O)OC[C@H]1CN(c2ccc(OC[C@]3(O)C[C@H]4COc5c(c(F)cc6c(=O)c(C(=O)O)cn(C7CC7)c56)N4C3)c(F)c2)C(=O)O1.Cl` [Example 11, (13S,16S)-16-{4-[(R)-5-((S)-2-amino-propionyloxymethyl)-2-oxo-oxazolidin-3-yl]-2-fluoro-phenoxymethyl}-1-cyclopropyl-7-fluoro-16-hydroxy-4-oxo-1,4,13,15,16,17-hexahydro-12H-11-oxa-1,14-diaza-cyclopenta[a]phenanthrene-3-carboxylic acid hydrochloride], the MIC in assay [2] (in the absence of human serum, read-out: MIC against S. Pneumoniae 49619) was no more than 0.063 µg/mL.

Turning to `O=C(O)c1cn(C2CC2)c2c3c(c(F)cc2c1=O)N1C[C@](O)(COc2ccc(N4C[C@H](COC(=O)C5CCNCC5)OC4=O)cc2F)C[C@H]1CO3` [Example 12, (13S,16S)-1-cyclopropyl-7-fluoro-16-{2-fluoro-4-[(R)-2-oxo-5-(piperidine-4-carbonyloxymethyl)-oxazolidin-3-yl]-phenoxymethyl}-16-hydroxy-4-oxo-1,4,13,15,16,17-hexahydro-12H-11-oxa-1,14-diaza-cyclopenta[a]phenanthrene-3-carboxylic acid], the MIC in assay [3] (A798, human serum absent, read-out: MIC against S. aureus A798) turned out to be 8 µg/mL (≈ 11.3 µM); in assay [3] (A798, in the presence of human serum, read-out: MIC against S. aureus A798), 2 µg/mL.

The term MIC denotes the least concentration at which growth counts as inhibited.
